Experimental findings from patent US20070142362A1, “4,5-Dihydro-(1H)-pyrazole derivatives as cannabinoid CB1 receptor modulators” (SOLVAY PHARMACEUTICALS B.V., priority 2005, published 2007) are described below.

A value given as a limit tells only on which side of the number the result lay.

What is called melting point is the temperature of the solid-liquid transition.

One data set deals with T1, human CB1 receptor (Homo sapiens, UniProt P21554).
T1 construct: expressed in transfected cells; host or cells: CHO cells
T1 sequence (P21554 whole entry): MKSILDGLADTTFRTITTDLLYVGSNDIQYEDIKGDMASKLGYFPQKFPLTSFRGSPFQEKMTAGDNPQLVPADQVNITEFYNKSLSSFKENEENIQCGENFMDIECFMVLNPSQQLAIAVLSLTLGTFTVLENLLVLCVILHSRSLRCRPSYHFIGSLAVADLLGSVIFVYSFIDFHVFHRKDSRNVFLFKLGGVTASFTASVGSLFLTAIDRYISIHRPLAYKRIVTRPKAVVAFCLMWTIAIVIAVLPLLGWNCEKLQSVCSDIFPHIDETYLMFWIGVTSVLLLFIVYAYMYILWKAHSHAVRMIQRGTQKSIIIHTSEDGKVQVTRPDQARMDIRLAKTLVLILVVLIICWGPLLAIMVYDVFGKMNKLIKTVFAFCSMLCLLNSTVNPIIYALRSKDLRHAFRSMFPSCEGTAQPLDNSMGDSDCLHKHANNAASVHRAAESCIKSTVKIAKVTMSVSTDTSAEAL
In words: In vitro cannabinoid-CB1 receptor (ant)agonism: [3H]-arachidonic acid release in CHO cells. The class given is cell-based. Conditions: CHO cells with human CB1 receptor, read-out: Human CB1 Arachidonic acid release (CB1) pEC50 (converted). On the procedure:
In Vitro Cannabinoid-CB1Receptor (Ant)Agonism
In vitro CB1 receptor antagonism/agonism can be assessed with the human CB1 receptor cloned in Chinese hamster ovary (CHO) cells. CHO cells are grown in a Dulbecco's Modified Eagle's medium (DMEM) culture medium, supplemented with 10% heat-inactivated fetal calf serum. Medium is aspirated and replaced by DMEM, without fetal calf serum, but containing [^3H]-arachidonic acid and incubated overnight in a cell culture stove (5% CO2/95% air; 37° C.; water-saturated atmosphere). During this period [^3H]-arachidonic acid is incorporated in membrane phospholipids. On the test day, medium is aspirated and cells are washed three times using 0.5 ml DMEM, containing 0.2% bovine serum albumin (BSA). CB1 agonist stimulation leads to activation of PLA2 followed by release of [^3H]-arachidonic acid into the medium. This CB1 agonist-induced release is concentration-dependently antagonized by CB1 receptor antagonists, such as for example rimonabant.

The target in data set [1] is T2, human cannabinoid CB1 receptor (Homo sapiens, UniProt P21554).
T2 construct: expressed in transfected cells; host or cells: CHO cells, stably transfected; membrane preparation
T2 sequence (P21554 whole entry): as above
In words: In vitro affinity for cannabinoid-CB1 receptors ([3H]CP-55,940 radioligand binding, CHO cell membranes). Conditions: mean of at least three independent experiments, read-out: Human CB1 receptor binding pKi (converted). As to the method:
In Vitro Affinity for Cannabinoid-CB1 Receptors
The affinity of the compounds of the invention for cannabinoid CB1 receptors can be determined using membrane preparations of Chinese hamster ovary (CHO) cells in which the human cannabinoid CB1 receptor is stably transfected in conjunction with [^3H]CP-55,940 as radioligand. After incubation of a freshly prepared cell membrane preparation with the [^3H]-ligand, with or without addition of compounds of the invention, separation of bound and free ligand is performed by filtration over glassfiber filters. Radioactivity on the filter is measured by liquid scintillation counting.

Data set [2] concerns the target T3, human cannabinoid CB2 receptor (Homo sapiens, UniProt P34972).
T3 construct: expressed in transfected cells; host or cells: CHO cells, stably transfected; membrane preparation
In words: In vitro affinity for cannabinoid-CB2 receptors ([3H]CP-55,940 radioligand binding, CHO cell membranes). Conditions: mean of at least three independent experiments, read-out: Human CB2 receptor binding pK1 (converted). On the procedure: In Vitro Affinity for Cannabinoid-CB2 Receptors
The affinity of the compounds of the invention for cannabinoid CB2 receptors can be determined using membrane preparations of Chinese hamster ovary (CHO) cells in which the human cannabinoid CB2 receptor is stably transfected in conjunction with [^3H]CP-55,940 as radioligand. After incubation of a freshly prepared cell membrane preparation with the [^3H]-ligand, with or without addition of compounds of the invention, separation of bound and free ligand is performed by filtration over glassfiber filters. Radioactivity on the filter is measured by liquid scintillation counting.

The target in a further data set is T4, human CB2 receptor (Homo sapiens, UniProt P34972).
T4 construct: host or cells: CHO K1 cells
T4 sequence (P34972 whole entry): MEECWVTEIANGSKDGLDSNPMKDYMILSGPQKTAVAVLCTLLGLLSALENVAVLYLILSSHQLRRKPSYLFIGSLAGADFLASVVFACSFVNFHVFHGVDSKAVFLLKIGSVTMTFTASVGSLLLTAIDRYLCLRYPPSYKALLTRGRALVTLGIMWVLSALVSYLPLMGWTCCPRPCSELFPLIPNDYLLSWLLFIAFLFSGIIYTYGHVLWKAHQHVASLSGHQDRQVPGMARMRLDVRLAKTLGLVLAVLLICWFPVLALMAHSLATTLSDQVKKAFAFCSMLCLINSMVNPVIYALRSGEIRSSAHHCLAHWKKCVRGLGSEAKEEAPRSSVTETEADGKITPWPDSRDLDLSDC
In words: In vitro cannabinoid-CB2 receptor (ant)agonism: forskolin-stimulated cAMP accumulation (adenylate cyclase activity) in CHO K1 cells. In kind it is cell-based. Conditions: for EC50: agonism, 3x10^-7 M forskolin, read-out: Human CB2 CB2-mediated adenylate cyclase activity pEC50 (converted). On the procedure: In Vitro Cannabinoid-CB2 Receptor (Ant)Agonism
Functional activity at the cannabinoid CB2 receptor was assessed using a forskolin-stimulated cAMP accumulation assay. The ability of compounds to stimulate and inhibit adenylate cyclase activity was assessed in Chinese ovarian hamster (CHO) K1 cells expressing human CB2 (Euroscreen, Brussel) receptor. CHO cells were grown in a CHO—S—SFM-II culture medium, supplemented with 10% heat-inactivated foetal calf serum, 2 mM glutamine, 400 μg/ml Hygromycine B and 500 μg/ml G418 at 37° C. in 93% air/5% CO2. For incubation with test compounds, confluent cultures grown in 24 well plates were used. Each condition or substance was routinely tested in quadruplicate. Cells were loaded with 1 mCi [^3H]-adenine in 0.5 ml medium per well. After 2 hours, cultures were washed with 0.5 ml PBS containing 1 mM IBMX and incubated for 20 minutes with 0.5 ml PBS containing 1 mM IBMX and 3×10^−7 M forskolin with or without the test compound. Antagonistic effects of test compounds were determined as inhibition of 0.1 μM JWH-133-decreased [^3H]cAMP formation. After aspiration the reaction was stopped with 1 ml trichloroacetic acid (5% w/v). The [3H]-ATP and [^3H]-cAMP formed in the cellular extract were assayed as follows: a volume of 0.8 ml of the extract was passed over Dowex (50WX-4200-400 mesh) and aluminum oxide columns, eluted with water and 0.1 M imidazole (pH=7.5). Eluates were mixed with 7 ml Ultima-Flo [AP] and the β-radioactivity was counted with a liquid scintillation counter. The conversion of [^3H]-ATP into [^3H]-cAMP was expressed as the ratio in percentage radioactivity in the cAMP fraction as compared to the combined radioactivity in both cAMP and ATP fractions, and basal activity was subtracted to correct for spontaneous activity. […] Compounds were studied in a concentration range of 10^−10 M to 10^−6M. pEC50 and the pA2 were calculated according to Cheng-Prusoff equation (Cheng and Prusoff, 1973). […]
(cAMP levels reflect the balance of adenylyl cyclase and phosphodiesterase activity.)

T3 sequence (P34972 whole entry): as above

For `CCCCCC1=NN(C(=O)NC2C3CC4CC(C3)CC2C4)CC1c1ccccc1` (centres unmarked), the melting point turned out to be 71 °C.
On to `COc1ccc(NC(=O)N2CC(c3ccc(Cl)cc3)C(Cc3ccc(Cl)cc3)=N2)cc1` (centres unmarked), for which the melting point is 116 to 119 °C.
For `CCCCCC1=NN(C(=O)NC[C@@H]2CC[C@H]3C[C@@H]2C3(C)C)CC1c1ccccc1` (relative stereo) [Compound 1, N-[(1R,2S,5R)-rel-6,6-dimethylbicyclo[3.1.1]heptan-2-methyl]-3-(n-pentyl)-4-phenyl-4,5-dihydro-(1H)-pyrazole-1-carboxamide], the EC50 on human CB1 receptor is 2000 nM. Besides, the results for the Ki in data set [1] and in data set [2] were 3.98 nM and 12.6 nM, respectively.
`CCCCC1=NN(C(=O)NC[C@@H]2CC[C@H]3C[C@@H]2C3(C)C)CC1c1ccccc1` (relative stereo) [Compound 7, N-[(1R,2S,5R)-rel-6,6-dimethylbicyclo[3.1.1]heptan-2-methyl]-3-(n-butyl)-4-phenyl-4,5-dihydro-(1H)-pyrazole-1-carboxamide]: the EC50 on human CB1 receptor was 631 nM. The Ki in data set [1] was 39.8 nM; in data set [2], 10 nM.
Consider `CCCCCC1=NN(S(=O)(=O)NC[C@@H]2CC[C@H]3C[C@@H]2C3(C)C)CC1c1ccccc1` (relative stereo) [Compound 130, N-[(1R,2S,5R)-rel-6,6-dimethylbicyclo[3.1.1]heptan-2-methyl]-3-(n-pentyl)-4-phenyl-4,5-dihydro-(1H)-pyrazole-1-sulfonamide], for which the Ki is 316 nM in data set [1] and 126 nM in data set [2].
`CCCCCC1=NN(C(=O)NCC23CC4CC(CC(C4)C2)C3)CC1c1ccccc1` (centres unmarked) [Compound 11, N-(1-Adamantyl)methyl-3-(n-pentyl)-4-phenyl-4,5-dihydro-(1H)-pyrazole-1-carboxamide]: the EC50 at human CB1 receptor is 2000 nM. Also, the Ki in data set [1] is 15.8 nM; in data set [2], 7.94 nM.
As to `CCCCCC1=NN(C(=O)NCC2CCCCC2)CC1c1ccccc1` (centres unmarked) [Compound 12, N-(Cyclohexylmethyl)-3-(n-pentyl)-4-phenyl-4,5-dihydro-(1H)-pyrazole-1-carboxamide], the Ki is 15.8 nM in data set [1] and 50.1 nM in data set [2].
Take `CCCCCC1=NN(C(=O)N[C@H]2C[C@H]3CC[C@]2(C)C3(C)C)CC1c1ccccc1` (stereo partly drawn) [Compound 13, N-[Endo-(1R,2S,4R)-1,7,7-trimethylbicyclo[2.2.1]hept-2-yl]-3-(n-pentyl)-4-phenyl-4,5-dihydro-(1H)-pyrazole-1-carboxamide]: the EC50 on human CB1 receptor is 0.501 nM. Further, the Ki in data set [1] and in data set [2] was 7.94 nM in each case.
With `CCCCCC1=NN(C(=O)Nc2cccc3ccccc23)CC1c1ccccc1` (centres unmarked) [Compound 18, N-(1-Naphtyl)-3-(n-pentyl)-4-phenyl-4,5-dihydro-(1H)-pyrazole-1-carboxamide], the figures for the Ki in data set [1] and in data set [2] were 6.31 nM and 31.6 nM, respectively.
Turning to `CCCCC1=NN(C(=O)NC(C)(C)Cc2ccccc2)CC1c1cccc(F)c1` (centres unmarked) [Compound 39, N-(2-phenyl-1,1-dimethyl-ethyl)-3-(n-butyl)-4-(3-fluorophenyl)-4,5-dihydro-(1H)-pyrazole-1-carboxamide], the figures for the Ki in data set [1] and in data set [2] were 3980 nM and 126 nM, respectively. Also, the EC50 at human CB2 receptor is 7.94 nM.
As for `CCCCC1=NN(C(=O)NC(C)(C)Cc2ccccc2)CC1c1ccccc1F` (centres unmarked) [Compound 40, N-(2-phenyl-1,1-dimethyl-ethyl)-3-(n-butyl)-4-(2-fluorophenyl)-4,5-dihydro-(1H)-pyrazole-1-carboxamide], the figures for the Ki in data set [1] and in data set [2] were 1580 nM and 158 nM, respectively. Moreover, the EC50 at human CB2 receptor is 7.94 nM.
`O=C(Nc1ccccc1)N1CC(c2ccc(Cl)cc2)C(Cc2ccc(Cl)cc2)=N1` (centres unmarked) [Compound 41, N-Phenyl-3-(4-chlorobenzyl)-4-(4-chlorophenyl)-4,5-dihydro-(1H)-pyrazole-1-carboxamide] gave a melting point of 156 °C. Also, the Ki in data set [1] was 316 nM. The Ki in data set [2] is 200 nM.
`CC1(C)[C@@H]2CC[C@@]1(C)[C@@H](NC(=O)N1CC(c3ccccc3)C(CC3CC3)=N1)C2` (stereo partly drawn) [Compound 54, N-[Endo-(1R,2S,4R)-1,7,7-trimethylbicyclo[2.2.1]hept-2-yl]-3-(cyclopropylmethyl)-4-phenyl-4,5-dihydro-(1H)-pyrazole-1-carboxamide]: the EC50 on human CB1 receptor was 251 nM. The Ki was 25.1 nM in data set [1] and 39.8 nM in data set [2].
For `CCCCCC1=NN(C(=O)c2cccc3ccccc23)CC1c1ccccc1` (centres unmarked) [Compound 87, 1-(1-Naphtoyl)-3-(n-pentyl)-4-phenyl-4,5-dihydro-(1H)-pyrazole], the EC50 on human CB1 receptor is 15.8 nM. Besides, the Ki in data set [1] was 79.4 nM; in data set [2] it was 100 nM.
Take `CCCCCC1=NN(C(=O)N[C@H]2C[C@H]3CC[C@]2(C)C3(C)C)CC1c1ccccc1` (stereo partly drawn) [Compound 97, N-Endo-[(1R,2S,4R)-1,7,7-trimethylbicyclo[2.2.1]hept-2-yl]-3-(n-pentyl)-4-phenyl-4,5-dihydro-(1H)-pyrazole-1-carboxamide]: at human CB1 receptor, the EC50 is under 1 nM. The Ki in data set [1] and in data set [2] was 5.01 nM throughout. Further, the “Human CB2 CB2-mediated adenylate cyclase activity pA2” value on human CB2 receptor (antagonism of 0.1 μM JWH-133-decreased [3H]cAMP formation) was found to be 9.2.
With `CCCCCC1=NN(C(=O)NC2CCCCCC2)CC1c1ccccc1` (centres unmarked) [Compound 109, N-cycloheptyl-3-(n-pentyl)-4-phenyl-4,5-dihydro-(1H)-pyrazole-1-carboxamide], the Ki was 6.31 nM in data set [1] and 25.1 nM in data set [2].
